# Reference: patent US7494980B2, “Antimicrobial peptide and methods of use thereof” (The United States of America as represented by the …, priority 2003, dated 2009)
# Test system: saliva bacteria (facultative anaerobic oral bacteria collected from saliva)
# Assay: In vitro killing of saliva bacteria
# Format: cell-based
# Settings: 0.5 h; chlorhexidine 0.12%, positive control; data not shown; read-out: log reduction in facultative anaerobic saliva organisms
# Procedure: The killing assay of saliva bacteria was done according to procedures established by Helmerhorst et al. (1999). Unstimulated saliva was collected from four healthy individuals who had refrained from eating for at least 2 hours. The study was approved by the Institutional Review Board of the Walter Reed Army Institute of Research and informed consent and sample donation consent were obtained from all volunteers. Pooled saliva was initially spun at 500 r.p.m. in an Eppendorf centrifuge (model 5810R) for 10 min at 4° C. to remove epithelial cells and mucus. Saliva bacteria were collected by spinning the supernatant at 4000 r.p.m. for 15 min at 4° C. The pellet was washed three times in 10 mM potassium phosphate buffer (PPB) and suspended in the same buffer to give approximately 1.0×10^7 cells ml^−1. Bacterial suspension (250 μl) was mixed with 250 μl peptide to obtain final peptide concentrations of 12.5, 25, 50, 100 and 200 μg ml^−1. After incubation of the mixture at 37° C. for 30 min, cells were spun down to remove KSL, washed once in PBS having a pH of 7.4 and suspended in PBS before spiral-plating 50 μl of the treated and untreated cells in different dilutions on BAP. The negative control was exposed to buffer only. Saliva bacteria exposed to 0.12% aqueous chlorhexidine served as positive controls. […]
structure (smiles),measurement,value
"[H]/N=C(\N/C(=N/[H])NCCCCCCNC(=N)NC(=N)Nc1ccc(Cl)cc1)Nc1ccc(Cl)cc1 [chlorhexidine, reference compound]",log reduction at 0.12 %,> 3
